From patent US5605929A, “Methods and compositions for inhibiting 5α-reductase activity” (priority 1995, dated 1997)
“Also recorded” adds a separate entry of the source.

Tests used:
type 1 5α-reductase [1] = biological target: type 1 5α-reductase (Homo sapiens, UniProt P18405); settings: cited from earlier work
[2] = tested on: Human Prostatic Cancer Cells; experiment: Cell morphology during 2 hour incubation; format: cell-based
[3] = tested on: 17β-steroid dehydrogenase; experiment: 4-Androstenedione formation from [3H]testosterone by PC-3 cells (17β-steroid dehydrogenase); format: cell-based, human
hamster flank organ = experiment: Flank organ, castrated immature male hamsters, topical treatment; format: in vivo, Syrian golden hamster
Protocol: One to two weeks after castration, the hair on the lower back of each animal was clipped with an electric hair clipper and then shaved weekly to expose the flank organs. The animals were divided into 5 animals/treatment group. A treatment solution (5 μl) was applied topically to the right flank organ once a day using a Pipetteman and a polypropylene disposable tip. Unless specified the left flank organ was not treated. The treatment solution contained either (a) ethanol alone (vehicle and control), (b) an androgen (T or 5α-DHT), (c) a fatty acid, or (d) a combination of an androgen and a fatty acid. The flank organ was wiped with an alcohol pad to remove residual compound before each treatment. […] The flank organs, both the treated and untreated sides, were evaluated with methods to be described below to determine the effect of these treatments of the growth of the pigmented macules and the sebaceous glands. The body weight of each animal was recorded before and after treatment.
The data are presented as mean ± standard deviation. […]

PC-3 = experiment: 5α-DHT formation from [3H]testosterone by PC-3 cells; format: cell-based, human
[4] = biological target: T1, 5α-Reductase of Rat Liver Microsomes (Rattus norvegicus, UniProt P24008); experiment: biochemical
T1 sequence (P24008 1-259): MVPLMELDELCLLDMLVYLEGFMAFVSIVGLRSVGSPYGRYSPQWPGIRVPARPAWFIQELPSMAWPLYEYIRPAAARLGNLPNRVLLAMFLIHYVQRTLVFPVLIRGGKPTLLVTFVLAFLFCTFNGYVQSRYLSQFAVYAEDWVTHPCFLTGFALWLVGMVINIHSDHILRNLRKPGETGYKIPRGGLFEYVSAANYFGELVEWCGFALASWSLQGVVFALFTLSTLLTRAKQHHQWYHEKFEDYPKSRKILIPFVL

scalp baldness = settings: cited from earlier work; for baldness: topical to scalp
rat pituitary cultures = settings: cited from earlier work
prostate = settings: dog, in vivo; cited from earlier work
5α-reductase / prostate = settings: cited from earlier work
5α-reductase = 5α-reductase inhibition stated in words; format: biochemical
[5] = biological target: T2, human 5α-reductase isozyme type 2 (Homo sapiens, UniProt P31213); experiment: 4-[14C]testosterone reduction, human type 2 isozyme; format: biochemical
T2 construct: expressed in transfected cells; host or cells: Rat-1A cells infected with pMV7 retrovirus; microsomes of these cells
T2 sequence (P31213 1-254): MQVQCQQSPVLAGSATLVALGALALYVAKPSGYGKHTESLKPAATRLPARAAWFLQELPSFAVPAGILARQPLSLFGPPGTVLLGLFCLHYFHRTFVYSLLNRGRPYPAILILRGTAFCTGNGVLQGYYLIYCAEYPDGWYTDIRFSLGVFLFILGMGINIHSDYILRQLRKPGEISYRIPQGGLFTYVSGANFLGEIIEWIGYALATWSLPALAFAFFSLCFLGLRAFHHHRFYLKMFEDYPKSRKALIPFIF
Description: (§1) The cDNAs for the human type 1 and 2 5α-reductases were isolated from human prostate λZAP II™ cDNA libraries using the published sequence of the 5α-reductases, PCR™ and standard library screening techniques (Sambrook et al., 1989). The type 1 and 2 cDNAs correspond to nucleotides 31-870 and 28-829, respectively, of the published sequences for these 5α-reductases (Anderson and Russell, 1990; Anderson et al., 1991). The type 1 and 2 cDNAs were subcloned into the retroviral expression vector pMV7 (Kirschmeier et al., 1988) and high titer stocks of virus containing the type 1 and 2 cDNAs were generated using the packaging cells BOSC 23 293 (Kirschmeier et al., 1988). Rat.-1A cells (Pear et al., 1993) were infected with virus (Topp, 1981) and cells containing integrated retrovirus were selected for G418-SO4 resistance, (Brown and Scott, 1987).
(§2) Microsomes were prepared as described previously (Liang and Liao, 1992) from the liver of adult Sprague-Dawley female rats or Rat-1A cells expressing a specific type of human 5α-reductase. […] The data presented was based on the rate of reaction.
(§3) The reaction was started by the addition of 25 μl of microsomes (25 μg protein). The mixture was incubated at 37° for 30-60 min and stopped by addition of 0.5 ml of ethyl acetate and mixing for 1 min. The organic solvent extract was removed under vacuum.

type 1 5α-reductase [6] = format: biochemical
Protocol: (§4) [^3 H]4-MA binding assay were described in detail previously (Liang and Liao, 1992; Liang et al., 1983). […] The reaction was started by the addition of 25 μl of microsomes (25 μg protein). After 30-60 min incubation at 0° C., the [^3 H]4-MA bound to microsomes was collected on a Whatman GF/F glass fiber, washed and radioactivity determined (Liang and Liao, 1992).
as §3

[7] = tested on: androgen-dependent organs; format: in vivo, rat
Protocol: The control rats were injected with 0.3 ml of 30% ethanol.

Soybean lipoxygenase = Soybean lipoxygenase (Glycine max, UniProt P08170); settings: cited from earlier work
Soybean lipoxygenase, sequence (P08170 whole entry): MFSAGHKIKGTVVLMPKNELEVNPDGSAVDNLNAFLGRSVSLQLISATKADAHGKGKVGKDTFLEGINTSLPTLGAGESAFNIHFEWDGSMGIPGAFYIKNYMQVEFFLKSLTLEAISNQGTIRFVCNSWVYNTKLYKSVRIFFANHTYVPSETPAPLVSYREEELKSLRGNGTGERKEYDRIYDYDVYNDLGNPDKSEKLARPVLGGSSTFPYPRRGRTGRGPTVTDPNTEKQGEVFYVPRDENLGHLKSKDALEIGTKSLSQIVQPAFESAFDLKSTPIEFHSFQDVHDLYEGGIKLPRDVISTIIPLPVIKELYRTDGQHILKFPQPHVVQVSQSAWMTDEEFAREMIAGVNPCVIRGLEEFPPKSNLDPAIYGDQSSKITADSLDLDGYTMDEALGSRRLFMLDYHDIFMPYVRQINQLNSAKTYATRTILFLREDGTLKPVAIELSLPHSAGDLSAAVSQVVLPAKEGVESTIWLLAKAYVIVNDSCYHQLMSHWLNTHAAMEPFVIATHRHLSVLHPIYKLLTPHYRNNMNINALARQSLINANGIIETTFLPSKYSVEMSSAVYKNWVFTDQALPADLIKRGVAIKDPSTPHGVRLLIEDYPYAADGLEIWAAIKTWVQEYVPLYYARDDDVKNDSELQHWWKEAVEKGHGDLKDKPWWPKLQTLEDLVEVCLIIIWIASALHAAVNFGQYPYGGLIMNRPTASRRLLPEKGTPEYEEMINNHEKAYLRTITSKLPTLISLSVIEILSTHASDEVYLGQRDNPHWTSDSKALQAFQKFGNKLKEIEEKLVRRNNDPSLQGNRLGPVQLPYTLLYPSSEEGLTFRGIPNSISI

[8] = tested on: prostate and preputial organ; experiment: Catechins ip 7 days, large rats; format: in vivo, rat; settings: 15 mg ip/day, 7 days
Protocol: Male Sprague Dawley rats, 172±20 g body weight, were used. Each group had 5 rats. […] The control rats received 0.3 ml of 30% ethanol.

[9] = biological target: T3, human 5α-reductase isozyme type 1 (Homo sapiens, UniProt P18405); experiment: [3H]4-MA binding, human type 1 isozyme expressed in Rat-1A cells; settings: read-out: % Inhibition of [^3 H]4-MA binding
T3 construct: expressed in transfected cells; host or cells: Rat-1A cells infected with pMV7 retrovirus; microsomes of these cells
T3 sequence (P18405 1-259): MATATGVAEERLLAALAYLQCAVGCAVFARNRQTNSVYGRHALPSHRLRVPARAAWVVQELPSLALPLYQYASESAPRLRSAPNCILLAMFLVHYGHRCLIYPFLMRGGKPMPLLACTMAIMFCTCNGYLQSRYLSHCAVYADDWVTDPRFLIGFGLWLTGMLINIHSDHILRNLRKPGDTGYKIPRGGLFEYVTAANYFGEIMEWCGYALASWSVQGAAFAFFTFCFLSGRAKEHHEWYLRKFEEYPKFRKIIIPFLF
Description: as §1, §2, §4

[10] = biological target: T3, human 5α-reductase isozyme type 1; experiment: 4-[14C]testosterone reduction, human type 1 isozyme; format: biochemical
Description: as §1, §2, §3

[11] = NADPH oxidation in presence of microsomes
[12] = biological target: T2, human 5α-reductase isozyme type 2; experiment: [3H]4-MA binding, human type 2 isozyme expressed in Rat-1A cells
Description: as §1, §2, §4

[13] = biological target: T1, 5α-Reductase of Rat Liver Microsomes; experiment: [3H]4-MA binding assay, rat liver microsomes (tea catechins)
In short: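 Microsomes from adult female Sprague-Dawley rat liver or Rat-1A cells expressing human 5α-reductase, 25 μg protein per reaction. Incubation 30–60 min at 0 °C; microsome-bound [3H]4-MA collected on glass-fibre filters and counted. Duplicate or triplicate determinations, values based on reaction rate.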

[14] = biological target: human type 1 and 2 5α-reductase isozymes (Homo sapiens, UniProt P18405); settings: cited from earlier work
[15] = tested on: human type 1 and 2 5α-reductase isozymes; settings: human; cited from earlier work
[16] = tested on: plasma 5α-DHT and prostate; settings: BPH patients; cited from earlier work
[17] = read-out: % Inhibition of 5α-reduction
[18] = read-out: % Inhibition of [^3 H]4-MA binding

SMILES: CN1C(=O)CC[C@@H]2c3ccc(Cl)cc3CC[C@H]21 [LY191704]
- type 1 5α-reductase selectivity (type 1 5α-reductase [1]): selective inhibitor of the type 1 5α-reductase

SMILES: CCCCCCCCCCCCCCCCCC(=O)O [Stearic acid]
- visible change in cell morphology [2]: did not produce any visible
- 4-Androstendione formed (% of control) ([3]; 5 μM): 103 ± 2 % of control
- 4-Androstendione formed (% of control) ([3]; 20 μM): 106 ± 5 % of control
- effect on metabolism of testosterone to 4-androstenedione (17β-steroid dehydrogenase) ([3]; words): did not affect
- Pigmented Macule, Untreated (L) (hamster flank organ; Table 4, 1 mg fatty acid alone, 18 days): 4.4 ± 0.4 mm^2
- Pigmented Macule, Untreated (L) (hamster flank organ; Table 4, 2 mg fatty acid alone, 18 days): 4.6 ± 1.4 mm^2
- Pigmented Macule, Untreated (L) (hamster flank organ; Table 4, T 0.5 μg + 1 mg fatty acid): 4.3 ± 0.6 mm^2
- Pigmented Macule, Untreated (L) (hamster flank organ; Table 4, T 0.5 μg + 2 mg fatty acid): 4.2 ± 0.4 mm^2
- significance vs T alone (hamster flank organ; Table 4, T + 1 mg fatty acid): N.S.
- significance vs T alone (hamster flank organ; Table 4, T + 2 mg fatty acid): N.S.
- inhibition of T-induced growth of pigmented macule (hamster flank organ; hamster, in vivo): did not inhibit
- effect on 5α-reductase reduction (PC-3; 5 to 20 μM, words): did not affect
- activity at 5 µM (PC-3; Homo sapiens, PC-3, 5 μM, read-out: 5α-DHT formed (% of control)): 123 ± 2%
- activity at 20 µM (PC-3; Homo sapiens, PC-3, 20 μM, read-out: 5α-DHT formed (% of control)): 121 ± 5%
- inhibition at 10 µM ([4]; read-out: % Inhibition of [^3 H]4-MA binding, Table 1, 10 μM): < 10%
- inhibition at 40 µM ([4]; read-out: % Inhibition of [^3 H]4-MA binding, Table 1, 40 μM): < 10%
- inhibition at 200 µM ([4]; read-out: % Inhibition of [^3 H]4-MA binding, Table 1, 200 μM): < 10%
- inhibition at 10 µM ([4]; read-out: % Inhibition of [^3 H]4-MA binding, Table 2, 10 μM): < 10%
- inhibition at 40 µM ([4]; read-out: % Inhibition of [^3 H]4-MA binding, Table 2, 40 μM): < 10%
- inhibition at 200 µM ([4]; read-out: % Inhibition of [^3 H]4-MA binding, Table 2, 200 μM): < 10%

SMILES: CCN(CC)C(=O)[C@H]1CC[C@H]2[C@@H]3CC[C@H]4N(C)C(=O)CC[C@]4(C)[C@H]3CC[C@]12C [4-MA, 17β-N,N-diethylcarbamoyl-4-methyl-4-aza-5α-androstan-3-one]
- baldness (scalp baldness): prevented the baldness; also recorded: effective in preventing male pattern baldness
- testosterone inhibition of LH release (rat pituitary cultures): did not affect testosterone inhibition of LH release
- prostate size (prostate): the prostate size decreases
- Ki [4]: 0.013 µM
- effect on prostate growth (5α-reductase / prostate; castrated rats + testosterone): attenuated the growth of the prostate
- effect on prostatic 5α-DHT (5α-reductase / prostate; intact or castrated male rats given testosterone propionate): decreasing the prostatic concentration of 5α-DHT

SMILES: O=C(OCc1cc(O)c(O)c(O)c1)c1cc(O)c(O)c(O)c1
- 5α-reductase inhibition (5α-reductase): potent inhibitor of 5α-reductase

SMILES: O=C(O[C@@H]1Cc2c(O)cc(O)cc2O[C@@H]1c1ccc(O)c(O)c1)c1cc(O)c(O)c(O)c1 [ECG, (-)Epicatechin-3-gallate]
- activity on type 2 isozyme ([5]; enzymatic assay, concentrations below 30 μM for ECG/EGCG): did not inhibit the Type 2 isozyme
- inhibition at 1 µM [5, 17]: < 10%
- inhibition at 3 µM [5, 17]: < 10%
- inhibition at 10 µM [5, 17]: < 10%
- inhibition at 30 µM [5, 17]: < 10%
- inhibition at 100 µM [5, 17]: 82%
- competition with testosterone or NADPH (type 1 5α-reductase [6]): did not appear to compete with testosterone or NADPH
- effect on all organs examined ([7]; 10 and 15 mg per day): less than 20%
- effect on the body weight ([7]; up to 15 mg per day): No significant effect
- IC50 (Soybean lipoxygenase): 18 µM
- effect on the body weights [8]: less than 10%
- inhibition at 1 µM [9]: 34%
- inhibition at 3 µM [9]: 47%
- inhibition at 10 µM [9]: 79%
- inhibition at 30 µM [9]: 87%
- inhibition at 100 µM [9]: 79%
- IC50 ([10]; enzymatic assay): ~10 µM
- inhibition at 1 µM [10, 17]: 20%
- inhibition at 3 µM [10, 17]: 27%
- inhibition at 10 µM [10, 17]: 47%
- inhibition at 30 µM [10, 17]: 90%
- inhibition at 100 µM [10, 17]: 99%
- NADPH oxidation [11]: did not induce NADPH oxidation
- inhibition at 1 µM [12, 18]: 17%
- inhibition at 3 µM [12, 18]: 17%
- inhibition at 10 µM [12, 18]: 45%
- inhibition at 30 µM [12, 18]: 76%
- inhibition at 100 µM [12, 18]: 80%
- inhibition at 5 µM [13, 18]: 25%
- inhibition at 10 µM [13, 18]: 44%
- inhibition at 20 µM [13, 18]: 74%
- inhibition at 40 µM [13, 18]: 88%
- inhibition at 200 µM [13, 18]: 92%
- IC50 ([13]; type 1 5α-reductase of rat liver microsomes, read-out: IC50): 12 µM

SMILES: CC(C)(C)NC(=O)[C@H]1CC[C@H]2[C@@H]3CC[C@H]4NC(=O)C=C[C@]4(C)[C@H]3CC[C@]12C [Finasteride, 17β-N-t-butylcarbamoyl-4-aza-5α-androst-1-en-3-one, reference compound]
- serum 5α-DHT and hair (scalp baldness; 0.5 mg/day oral, alone or with topical 2% Minoxidil): reduced serum 5α-DHT level
- baldness (scalp baldness): effective in preventing male pattern baldness
- sensitivity of type 1 isozyme [14]: rather insensitive
- sensitivity of type 2 vs type 1 isozyme to inhibition (times) [15]: 30 times
- inhibition at 0.001 µM [9]: < 10%
- inhibition at 0.003 µM [9]: < 10%
- inhibition at 0.01 µM [9]: < 10%
- inhibition at 0.03 µM [9]: < 10%
- inhibition at 0.1 µM [9]: < 10%
- plasma 5α-DHT and prostate size [16]: decreases the plasma level of 5α-DHT and the size of the prostate
- inhibition of type 2 isozyme expressed in Rat-1A cells [12]: inhibited the type 2 isozyme
- inhibition at 0.001 µM [12, 18]: < 10%
- inhibition at 0.003 µM [12, 18]: < 10%
- inhibition at 0.01 µM [12, 18]: 22%
- inhibition at 0.03 µM [12, 18]: 44%
- inhibition at 0.1 µM [12, 18]: 67%
